Measurements published in patent US5118882A, “Streptenols from streptomycetes, and the preparation and use thereof” (Hoechst Aktiengesellschaft, priority 1989, dated 1992).

System: HEP-G2 cells
Assay: Inhibition of cholesterol biosynthesis (14C-acetate incorporation into cholesterol)
Format: cell-based
Conditions: Homo sapiens, HepG2; HEP-G2 monolayers, 1 h preincubation, 3 h with 14C-sodium acetate; read-out: IC50 value (concentration at which 50% of the cholesterol synthesis was inhibited)
Method: 4. Inhibition of cholesterol biosynthesis
The biological effectiveness of the compound of the formula I was determined using cell cultures of cell line HEP-G2. For this purpose, monolayers of HEP-G2 cells were preincubated for one hour in a lipo-protein-free culture medium containing appropriate concentrations of the test substances; after the ^14 C-labeled precursor ^14 C-(sodium acetate) has been added, incubation is continued for three hours. After this, a portion of the cells are subjected to alkaline hydrolysis, an internal standard of ^3 H-cholesterol having been added previously. The lipids of the hydrolysed cells are extracted using chloroform/methanol. Support-cholesterol is added, and this lipid mixture is then separated by means of preparative thin-layer chromatography; the cholesterol band is made visible and then isolated, and the amount ^14 C-cholesterol which has been formed from the ^14 C-precursor is determined scintigraphically. […] In aliquots of the cell culture, the intactness of the cell culture and lack of damage to cells by the influence of preparations is assessed morphologically (in an optical microscope) and biochemically by determining the amount of lactate dehydrogenase in the incubation medium. […]

Q: `CC[C@H](C)C(=O)O[C@H]1C[C@@H](C)C=C2C=C[C@H](C)[C@H](CC[C@@H]3C[C@@H](O)CC(=O)O3)[C@H]21` [lovastatin] was tested. Which IC50 did it give?
A: 20 nM
